From article PMC12155096 (International Journal of Molecular Sciences, 2025)
Like-named read-outs stand apart in the source and are kept apart here.

How the values were obtained:
[1] = molecular target: Photinus pyralis (firefly) luciferase (Photinus pyralis, UniProt P08659); test: biochemical; format: biochemical
human CYP1A2 = molecular target: T1, human CYP1A2 (Homo sapiens, UniProt P05177)
T1 sequence (P05177 1-516): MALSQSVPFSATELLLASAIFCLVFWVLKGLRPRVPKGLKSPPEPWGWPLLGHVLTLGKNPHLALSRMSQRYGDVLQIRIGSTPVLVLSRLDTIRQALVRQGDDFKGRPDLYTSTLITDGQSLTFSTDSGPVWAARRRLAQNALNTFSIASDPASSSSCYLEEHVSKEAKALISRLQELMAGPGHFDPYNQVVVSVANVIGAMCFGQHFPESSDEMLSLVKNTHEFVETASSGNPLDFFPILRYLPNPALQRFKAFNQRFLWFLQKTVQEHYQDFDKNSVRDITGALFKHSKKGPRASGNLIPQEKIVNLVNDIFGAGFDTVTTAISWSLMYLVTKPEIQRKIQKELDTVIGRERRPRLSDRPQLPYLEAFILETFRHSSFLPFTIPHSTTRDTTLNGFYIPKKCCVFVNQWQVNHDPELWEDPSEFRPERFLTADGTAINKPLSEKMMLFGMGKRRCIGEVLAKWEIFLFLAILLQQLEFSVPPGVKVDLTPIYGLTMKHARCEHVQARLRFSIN

human CYP2C9 = human CYP2C9 (Homo sapiens, UniProt P11712)
Sequence of human CYP2C9 (P11712 whole entry): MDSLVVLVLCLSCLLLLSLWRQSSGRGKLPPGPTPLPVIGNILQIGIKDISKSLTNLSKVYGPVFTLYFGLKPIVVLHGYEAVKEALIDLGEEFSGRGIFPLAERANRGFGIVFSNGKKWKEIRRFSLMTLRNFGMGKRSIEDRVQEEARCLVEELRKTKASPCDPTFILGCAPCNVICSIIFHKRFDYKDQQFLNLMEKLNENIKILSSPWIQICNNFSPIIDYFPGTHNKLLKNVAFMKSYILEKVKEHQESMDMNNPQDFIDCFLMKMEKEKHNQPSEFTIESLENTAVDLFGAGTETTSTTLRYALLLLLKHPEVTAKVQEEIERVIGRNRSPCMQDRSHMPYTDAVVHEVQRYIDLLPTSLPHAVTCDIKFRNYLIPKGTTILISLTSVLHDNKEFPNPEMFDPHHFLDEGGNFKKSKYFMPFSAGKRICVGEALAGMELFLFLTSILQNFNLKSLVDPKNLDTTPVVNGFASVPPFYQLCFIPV

human CYP2C19 = human CYP2C19 (Homo sapiens, UniProt P33261)
Sequence of human CYP2C19 (P33261 whole entry): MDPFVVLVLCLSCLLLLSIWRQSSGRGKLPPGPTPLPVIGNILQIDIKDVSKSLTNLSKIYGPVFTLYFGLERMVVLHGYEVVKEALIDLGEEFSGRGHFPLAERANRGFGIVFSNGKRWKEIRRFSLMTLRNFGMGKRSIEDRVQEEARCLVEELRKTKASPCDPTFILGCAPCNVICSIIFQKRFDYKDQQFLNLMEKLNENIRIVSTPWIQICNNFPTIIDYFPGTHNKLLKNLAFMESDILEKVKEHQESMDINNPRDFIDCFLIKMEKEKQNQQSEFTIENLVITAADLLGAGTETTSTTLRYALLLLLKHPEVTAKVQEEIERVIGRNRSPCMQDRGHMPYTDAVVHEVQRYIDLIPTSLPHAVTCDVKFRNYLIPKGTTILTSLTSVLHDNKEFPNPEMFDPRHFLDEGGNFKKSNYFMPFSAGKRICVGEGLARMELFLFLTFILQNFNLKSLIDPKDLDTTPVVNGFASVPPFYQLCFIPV

human CYP2D6 = human CYP2D6 (Homo sapiens, UniProt P10635)
Sequence of human CYP2D6 (P10635 whole entry): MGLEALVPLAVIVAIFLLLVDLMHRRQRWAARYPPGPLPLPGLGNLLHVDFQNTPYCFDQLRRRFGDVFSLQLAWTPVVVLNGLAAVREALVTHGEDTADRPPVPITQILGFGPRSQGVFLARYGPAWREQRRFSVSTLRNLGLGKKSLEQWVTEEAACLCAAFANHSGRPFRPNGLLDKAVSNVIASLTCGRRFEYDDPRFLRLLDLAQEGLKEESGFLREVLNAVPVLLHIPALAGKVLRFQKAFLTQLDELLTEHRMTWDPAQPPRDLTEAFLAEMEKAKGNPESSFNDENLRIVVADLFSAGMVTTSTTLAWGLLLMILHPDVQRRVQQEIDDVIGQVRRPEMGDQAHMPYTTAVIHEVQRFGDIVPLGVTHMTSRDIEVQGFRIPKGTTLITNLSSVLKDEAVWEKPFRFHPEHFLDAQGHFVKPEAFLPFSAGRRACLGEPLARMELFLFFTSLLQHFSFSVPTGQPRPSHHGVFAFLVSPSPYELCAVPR

CYP3A4 = CYP3A4 (Homo sapiens, UniProt P08684)
Sequence of CYP3A4 (P08684 whole entry): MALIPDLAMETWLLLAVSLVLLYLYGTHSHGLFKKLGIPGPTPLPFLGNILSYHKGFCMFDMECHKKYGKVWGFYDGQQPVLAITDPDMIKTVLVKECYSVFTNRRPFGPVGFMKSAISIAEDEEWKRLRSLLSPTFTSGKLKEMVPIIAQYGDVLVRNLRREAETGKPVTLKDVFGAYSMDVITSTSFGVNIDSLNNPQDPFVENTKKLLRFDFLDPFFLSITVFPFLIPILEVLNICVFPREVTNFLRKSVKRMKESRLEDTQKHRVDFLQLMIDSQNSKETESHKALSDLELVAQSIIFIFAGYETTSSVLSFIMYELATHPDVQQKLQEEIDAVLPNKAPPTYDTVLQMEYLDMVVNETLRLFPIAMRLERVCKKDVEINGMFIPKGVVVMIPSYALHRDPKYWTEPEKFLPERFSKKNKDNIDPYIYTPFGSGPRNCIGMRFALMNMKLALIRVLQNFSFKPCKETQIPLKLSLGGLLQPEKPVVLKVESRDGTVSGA

[2] = read-out: Luciferase IC50 (half-maximal inhibitory concentration)

Sequence of Photinus pyralis (firefly) luciferase (P08659 whole entry): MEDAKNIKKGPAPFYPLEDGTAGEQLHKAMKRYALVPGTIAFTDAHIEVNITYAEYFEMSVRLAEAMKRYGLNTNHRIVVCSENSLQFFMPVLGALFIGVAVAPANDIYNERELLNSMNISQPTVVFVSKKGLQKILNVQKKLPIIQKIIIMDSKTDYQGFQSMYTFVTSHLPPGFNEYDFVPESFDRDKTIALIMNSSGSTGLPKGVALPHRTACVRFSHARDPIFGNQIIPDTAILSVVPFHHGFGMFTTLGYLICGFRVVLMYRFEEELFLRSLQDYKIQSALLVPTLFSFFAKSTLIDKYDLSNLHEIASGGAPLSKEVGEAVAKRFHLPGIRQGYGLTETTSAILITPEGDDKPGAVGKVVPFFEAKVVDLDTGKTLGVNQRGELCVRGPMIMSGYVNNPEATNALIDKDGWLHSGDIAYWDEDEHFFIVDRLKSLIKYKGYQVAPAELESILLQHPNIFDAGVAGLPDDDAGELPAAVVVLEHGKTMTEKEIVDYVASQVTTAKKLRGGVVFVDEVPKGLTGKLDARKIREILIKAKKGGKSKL

Structure (SMILES)	IC50 (human CYP1A2) [µM]	IC50 (human CYP2C9) [µM]	IC50 (human CYP2C19) [µM]	IC50 (human CYP2D6) [µM]	IC50 (CYP3A4) [µM]	Luciferase IC50 (half-maximal inhibitory concentration) [1]	further results
Cc1ccc([N+](=O)[O-])[c]2c1[O][Hg]2 [Nitromersol]	4.36	0.87	1.28	0.78	8.08	–	Luciferase Efficacy (in parenthesis) [1]: 12.48 ± 4.81 (-100 ± 9) %; IC50 [1, 2]: 12.5 µM; CYP1A2 Efficacy (in parenthesis) (human CYP1A2): 4.36 ± 1.13 (-86 ± 7) %; CYP2C9 Efficacy (in parenthesis) (human CYP2C9): 0.87 ± 0 (-104 ± 2) %; CYP2C19 Efficacy (in parenthesis) (human CYP2C19): 1.28 ± 0.79 (-139 ± 25) %; CYP2D6 Efficacy (in parenthesis) (human CYP2D6): 0.78 ± 0.09 (-101 ± 2) %; CYP3A4 Efficacy (in parenthesis) (CYP3A4): 8.08 ± 0.55 (-86 ± 6) %
CN1CCN(C2Cc3ccccc3Sc3ccc(Cl)cc32)CC1.O=C(O)/C=C\C(=O)O (stereo not drawn) [Octoclothepine maleate]	28.3	30.6	11.5	0.26	2.28	–	Luciferase IC50 [1]: Inactive
O=S(=O)([O-])C(F)(F)C(F)(F)C(F)(F)C(F)(F)C(F)(F)C(F)(F)C(F)(F)C(F)(F)F.[K+] [PFOS-K]	–	0.61	39.6	–	–	Inactive	CYP1A2 IC50 (half-maximal inhibitory concentration) (human CYP1A2): Inactive; CYP2D6 IC50 (half-maximal inhibitory concentration) (human CYP2D6): Inactive; CYP3A4 IC50 (half-maximal inhibitory concentration) (CYP3A4): Inactive
O=S(=O)(O)C(F)(F)C(F)(F)C(F)(F)C(F)(F)C(F)(F)C(F)(F)C(F)(F)C(F)(F)F [PFOS]	32.3	0.51	23.4	28.4	80	–	IC50 [1, 2]: 71.3 µM
OC(c1ccc(Cl)cc1)(c1ccc(Cl)cc1)c1cccnc1 [Parinol]	38.5	0.4	0.08	14.2	2.75	Inactive	CYP1A2 Efficacy (in parenthesis) (human CYP1A2): 38.47 ± 2.51 (-60 ± 13) %; CYP2C9 Efficacy (in parenthesis) (human CYP2C9): 0.4 ± 0.05 (-109 ± 9) %; CYP2C19 Efficacy (in parenthesis) (human CYP2C19): 0.08 ± 0.01 (-151 ± 12) %; CYP2D6 Efficacy (in parenthesis) (human CYP2D6): 14.17 ± 5.05 (-105 ± 7) %; CYP3A4 Efficacy (in parenthesis) (CYP3A4): 2.75 ± 0.47 (-69 ± 3) %
CO/C=C(/C(=O)OC)c1ccccc1COc1cccc(C(F)(F)F)n1 [Picoxystrobin]	32.1	38.4	0.99	38.4	–	Inactive	AC50 (human CYP1A2): 32.1 µM; AC50 (human CYP2C9): 38.4 µM; AC50 (human CYP2C19): 0.99 µM; AC50 (human CYP2D6): 38.4 µM; AC50 (CYP3A4): 2.32 µM; CYP3A4 IC50 (half-maximal inhibitory concentration) (CYP3A4): 2.32 ± 0.75 (38 ± 1) µM
COc1cc2c(cc1OC)C(C(C(=O)N(CCc1ccc(OC)c(OC)c1OC)CCc1ccc(OC)c(OC)c1OC)c1ccccc1)=NCC2.Cl (stereo not drawn) [Pinokalant hydrochloride]	37.3	–	19.6	–	0.57	Inactive	CYP2C9 Efficacy (human CYP2C9): 11.86 ± 0.77 (-103 ± 7) %; CYP2D6 Efficacy (human CYP2D6): 9.34 ± 4.19 (-64 ± 10) %
CC(=O)/C=C/c1ccc2c(c1)OCO2 [Piperonal acetone]	0.25	–	14.5	–	4.65	–	IC50 [1, 2]: 40.3 µM; CYP2C9 Efficacy (human CYP2C9): 8.04 ± 0.92 (-118 ± 10) %; CYP2D6 Efficacy (human CYP2D6): 31 ± 5.28 (-103 ± 9) %
CC(=O)CCc1ccc2c(c1)OCO2 [Piperonyl acetone]	0.75	–	29.9	–	18.5	Inactive	CYP2C9 Efficacy (human CYP2C9): 22.26 ± 9.54 (-102 ± 10) %; CYP2D6 Efficacy (human CYP2D6): 44.96 ± 16.37 (-42 ± 9) %
O=C(NCc1cccnc1)Nc1ccc([N+](=O)[O-])cc1 [Pyrinuron]	15.5	5.43	3.28	44.8	0.93	Inactive	CYP1A2 Efficacy (in parenthesis) (human CYP1A2): 15.45 ± 2.63 (-100 ± 0) %; CYP2C9 Efficacy (in parenthesis) (human CYP2C9): 5.43 ± 0.35 (-105 ± 9) %; CYP2C19 Efficacy (in parenthesis) (human CYP2C19): 3.28 ± 1.56 (-135 ± 13) %; CYP2D6 Efficacy (in parenthesis) (human CYP2D6): 44.8 ± 15.98 (-64 ± 3) %; CYP3A4 Efficacy (in parenthesis) (CYP3A4): 0.93 ± 0.12 (-76 ± 5) %
C[C@@H]1CN(CCCn2c3ccccc3c3ccccc32)C[C@H](C)N1.Cl.Cl [Rimcazole dihydrochloride]	10.6	–	–	–	1.84	–	Luciferase IC50 [1]: Inactive; CYP2C9 IC50 (human CYP2C9): Inactive; CYP2C19 IC50 (human CYP2C19): Inactive; CYP2D6 Efficacy (human CYP2D6): 0.4 ± 0.03 (-102 ± 4) %
Cn1ccc2cc3c(cc21)CCN3C(=O)Nc1cccnc1 [SB-206553]	0.07	–	–	–	3.55	–	Luciferase Efficacy (in parenthesis) [1]: 4.77 ± 1.70 (-73 ± 12) %; IC50 [1, 2]: 4.77 µM; CYP1A2 Efficacy (in parenthesis) (human CYP1A2): 0.07 ± 0.01 (-96 ± 6) %; CYP2C9 IC50 (half-maximal inhibitory concentration) (human CYP2C9): Inactive; CYP2C19 IC50 (half-maximal inhibitory concentration) (human CYP2C19): Inactive; CYP2D6 IC50 (half-maximal inhibitory concentration) (human CYP2D6): Inactive; CYP3A4 Efficacy (in parenthesis) (CYP3A4): 3.55 ± 0.64 (-82 ± 5) %
COc1cccc(CCc2ccccc2OCC(CN(C)C)OC(=O)CCC(=O)O)c1.Cl (stereo not drawn) [Sarpogrelate hydrochloride]	16.2	–	36.8	–	6.72	Inactive	CYP2C9 IC50 (half-maximal inhibitory concentration) (human CYP2C9): Inactive; CYP2D6 Efficacy (human CYP2D6): 0.42 ± 0.24 (-101 ± 2) %
CC(C)CC(N(C)C)C1(c2ccc(Cl)cc2)CCC1.Cl (stereo not drawn) [Sibutramine hydrochloride]	–	–	8.47	4.24	0.94	Inactive	CYP1A2 IC50 (half-maximal inhibitory concentration) (human CYP1A2): Inactive; CYP2C9 IC50 (half-maximal inhibitory concentration) (human CYP2C9): Inactive; CYP2C19 Efficacy (in parenthesis) (human CYP2C19): 8.47 ± 1.44 (-127 ± 8) %; CYP2D6 Efficacy (in parenthesis) (human CYP2D6): 4.24 ± 0.72 (-88 ± 6) %; CYP3A4 Efficacy (in parenthesis) (CYP3A4): 0.94 ± 0.06 (-73 ± 3) %
CCNc1nc(Cl)nc(NC(C)(C)C)n1 [Terbutylazine]	10.8	0.62	31.2	–	–	–	Luciferase IC50 [1]: Inactive; CYP2D6 IC50 (human CYP2D6): Inactive; CYP3A4 IC50 (CYP3A4): Inactive
CCN(CC)CCOc1ccc(Cc2ccccc2)cc1.Cl [Tesmilifene hydrochloride]	–	–	0.43	12.1	–	Inactive	CYP1A2 IC50 (half-maximal inhibitory concentration) (human CYP1A2): Inactive; CYP2C9 IC50 (half-maximal inhibitory concentration) (human CYP2C9): Inactive; AC50 (human CYP2C19): 0.43 µM; AC50 (human CYP2D6): 12.1 µM; AC50 (CYP3A4): 14.2 µM; CYP3A4 IC50 (half-maximal inhibitory concentration) (CYP3A4): 14.21 ± 3.96 (44 ± 9) µM
CCCCCCCC[N+](CCCCCCCC)(CCCCCCCC)CCCCCCCC.[Br-] [Tetra-N-octylammonium bromide]	73.8	34.2	16.4	0.4	1.87	–	IC50 ([1]; read-out: Luciferase IC50): 89.2 µM
CCCCCCCC[P+](CCCCCCCC)(CCCCCCCC)CCCCCCCC.[Br-] [Tetraoctylphosphonium bromide]	57.7	23.2	14	0.75	1.73	–	IC50 ([1]; read-out: Luciferase IC50): 65.5 µM
N#Cc1c(-c2ccc(Cl)cc2)[nH]c(C(F)(F)F)c1Br [Tralopyril]	0.33	10.4	35	65.8	–	Inactive	CYP3A4 IC50 (half-maximal inhibitory concentration) (CYP3A4): Inactive
C=CCOC(=O)c1ccc(C(=O)OCC=C)c(C(=O)OCC=C)c1 [Triallyl trimellitate]	5.66	0.33	0.15	46.2	1.5	Inactive	–
CCCC[P+](C)(CCCC)CCCC.COS(=O)(=O)[O-] [Tributylmethylphosphonium methyl sulfate]	–	–	63.3	0.24	–	–	Luciferase IC50 [1]: Inactive; CYP1A2 IC50 (human CYP1A2): Inactive; CYP2C9 IC50 (human CYP2C9): Inactive; CYP3A4 IC50 (CYP3A4): Inactive
CCC(COC(=O)c1cc(OC)c(OC)c(OC)c1)(c1ccccc1)N(C)C.O=C(O)/C=C\C(=O)O (stereo not drawn) [Trimebutine maleate]	–	15.5	30.3	0.67	4.07	Inactive	CYP1A2 IC50 (half-maximal inhibitory concentration) (human CYP1A2): Inactive
c1cc[c]([Bi]([c]2ccccc2)[c]2ccccc2)cc1 [Triphenylbismuth]	–	0.73	0.17	31.9	2.36	–	Luciferase IC50 [1]: Inactive; CYP1A2 IC50 (human CYP1A2): Inactive
[Cl][Bi]([Cl])([c]1ccccc1)([c]1ccccc1)[c]1ccccc1 [Triphenylbismuthine dichloride]	17.2	0.88	0.28	7.15	15	–	IC50 ([1]; read-out: Luciferase IC50): 13.2 µM
CC(=O)[O][Sn]([c]1ccccc1)([c]1ccccc1)[c]1ccccc1 [Triphenyltin acetate]	47.5	1.36	4.84	0.81	8.45	–	IC50 ([1]; read-out: Luciferase IC50): 3.81 µM
